The record followed here is ChEMBL document CHEMBL4340537, “A cross-linking approach to map small molecule-RNA binding sites in cells” (Bioorg Med Chem Lett, 2019).

For data set [1], the system named is MDA-MB-231. In words: Binding affinity to pri-miR-96 RNA in human MDA-MB-231 cells assessed as reduction in matured miR-96 levels at 50 nM for 24 hrs by RT-qPCR method. The data set is classed as cell-based. On the technique in general: Quantitative PCR measures a nucleic acid by following its amplification.
Data set [2] relates to MDA-MB-231. In words: Binding affinity to pri-miR-96 RNA in human MDA-MB-231 cells assessed as increase in FOXO1 protein expression at 50 nM for 24 hrs by RT-qPCR method. The data set is classed as cell-based.
The test system of data set [3] is MDA-MB-231. In words: Induction of apoptosis in human MDA-MB-231 cells assessed as increase in caspase 3/7 activity up to 500 nM incubated for 48 hrs by caspase glo 3/7 assay. In kind it is functional, cell-based.
The nature of data set [4]: Binding affinity to 32P-labeled pri-miR-96 RNA (unknown origin) incubated for 4 hrs by streptavidin based liquid scintillation counting dependent pull down assay.
For the next data set, the system named is MCF-10A. Kind of data set: Induction of apoptosis in human MCF10A cells assessed as increase in caspase 3/7 activity up to 500 nM incubated for 48 hrs by caspase glo 3/7 assay. In kind it is cell-based.
Data set [5] concerns microRNA 96. Kind of data set: Inhibition of miR-96 RNA in human MDA-MB-231 cells by TargetScan assay. In kind it is cell-based.
Data set [6] concerns MDA-MB-231. In words: Binding affinity to pri-miR-96 RNA in human MDA-MB-231 cells assessed as increase in RNA abundance at 50 nM for 24 hrs by RT-qPCR relative to control. The data set is classed as cell-based.
Data set [7] is described as follows: Binding affinity to pri-miR-96 RNA (unknown origin) at 1000 nM in presence of Targaprimir-96 by in vitro competitive (C-)Chem CLIP assay.
Data set [8] relates to microRNA 96. Kind of data set: Inhibition of miR-96 RNA in human MDA-MB-231 cells by volcano plot analysis. The data set is classed as cell-based.

Molecules are shown by their SMILES. Active and inactive are the calls of the source. The rule behind the calls is not given here. Numbered stars: 1 amine (or outer) side, 2 acyl side, 3 side chain; on linkers, the order of the positions; unused ones are H or OH. Square brackets hold non-standard residues; d marks the D form. Peptide text beside a SMILES is read from it. * marks the point of attachment. Biotinyl(3aR,4R,6aS) = O=C1N[C@@H]2[C@@H](CS[C@@H]2CCCCC(=O)*)N1; N(2-Aminoethyl)Gly = O=C(CN(CCN[*:3])[*:1])[*:2]; Chlorambucil = O=C(CCCc1ccc(N(CCCl)CCCl)cc1)*; Gly(N-propargyl) = C#CCNCC(=O)O; NPrGly = CCCNCC(=O)O

`C#CCN(CC(=O)N(CCNC(=O)CCCC[C@H]1SC[C@H]2NC(=O)N[C@H]21)CC(N)=O)C(=O)CN(CCC)C(=O)CN(CCNC(=O)CCCc1ccc(N(CCCl)CCCl)cc1)C(C)=O` (Ac-[N(2-Aminoethyl)Gly](Chlorambucil)[NPrGly][Gly(N-propargyl)][N(2-Aminoethyl)Gly](Biotinyl(3aR,4R,6aS))-NH2): the outcome (with MDA-MB-231 [1]; in the data set on MDA-MB-231 [2]; with MDA-MB-231 [3]; in data set [4]) was inactive.

For the molecule `CCCN(CC(=O)N(CC(=O)N(CCNC(=O)CCCC[C@H]1SC[C@H]2NC(=O)N[C@H]21)CC(N)=O)Cc1cn(CCCNC(=O)CCCOc2c(C(C)(C)C)cc(-c3nc4cc(N5CCN(C)CC5)ccc4[nH]3)cc2C(C)(C)C)nn1)C(=O)CN(CCNC(=O)CCCc1ccc(N(CCCl)CCCl)cc1)C(=O)CCCOc1cccc(-c2nc3ccc(-c4nc5cc(N6CCN(C)CC6)ccc5[nH]4)cc3[nH]2)c1`, the Activity entry in the data set on MCF-10A is reported as “Non-Toxic”.

Regarding `CCCN(CC(=O)N(CC(=O)N(CCNC(=O)CCCC[C@H]1SC[C@H]2NC(=O)N[C@H]21)CC(N)=O)Cc1cn(CCCNC(=O)CCCOc2c(C(C)(C)C)cc(-c3nc4cc(N5CCN(C)CC5)ccc4[nH]3)cc2C(C)(C)C)nn1)C(=O)CN(CCNC(=O)CCCc1ccc(N(CCCl)CCCl)cc1)C(=O)CCCOc1cccc(-c2nc3ccc(-c4nc5ccc(N6CCN(C)CC6)cc5[nH]4)cc3[nH]2)c1`, the inhibition entry in the data set on microRNA 96 [5] and with microRNA 96 [8] was “Active” each time. Moreover, the outcome (in the data set with MDA-MB-231 [1]; in the data set with MDA-MB-231 [2]; in the data set on MDA-MB-231 [3]; in data set [4]) was Active. In addition, the fold change (FC) with MDA-MB-231 [6] came out at 1.5. The outcome in data set [7] was inactive.

For the molecule `CCCN(CC(=O)N(CCC)CC(=O)N(CC(N)=O)Cc1cn(CCCNC(=O)CCCOc2c(C(C)(C)C)cc(-c3nc4cc(N5CCN(C)CC5)ccc4[nH]3)cc2C(C)(C)C)nn1)C(=O)CCCOc1cccc(-c2nc3ccc(-c4nc5ccc(N6CCN(C)CC6)cc5[nH]4)cc3[nH]2)c1`, the result with MDA-MB-231 [1], in the data set on MDA-MB-231 [2] and in the data set on MDA-MB-231 [3] was Active. The fold change (FC) with MDA-MB-231 [6] was determined as 1.5. Also, the Activity entry in the data set with MCF-10A is “Non-Toxic”.
